Results on 7 compounds are retold here after patent US8268635B2, “Methods of identifying agents that selectively activate p38 and/or NKkB signaling” (priority 2006, dated 2012).

Where no end group is shown, it is not given here.

Experiment [1] has as its system ERK1/ERK2. Nature of the experiment: ERK1/ERK2 activation in neutrophils in suspension. The format is cell-based, human. Particulars: TNF, TNF70-80 15 min; PMA 100 nM 5 min. On the procedure: (§1) The cells were lysed and the lysate assessed by western blot analysis for the level of dual-phosphorylated ERK1/ERK2 (top panel) and ERK2 protein (bottom panel). […] The level of myelin basic protein phosphorylation was quantitated by an Instant Imager.
Neutrophils were prepared from peripheral blood of healthy donors by a rapid single-step technique (Kumaratilake, L. M., Rathjen, D. A., Mack, P., Widmer, F., Prasertsiriroj, V., and Ferrante, A. (1995) J. Clin. Invest. 95: 2315-2323) using Hypaque-Ficoll and according to the institution's guidelines on human ethics. […]
KHS (hereon referred to as “GCKR”) activity was assayed as described previously using myelin basic protein as a substrate (Shi, C. S., Leonardi, A., Kyriakis, J., Siebenlist, U., and Kerhl, J. H. (1999) J. Immunol. 163: 3279-3285). ASK-1 activation was determined in immunoprecipitates of ASK-1 by autophosphorylation (Kyriakis, J. M., and Auruch, J. (2001) Physiol. Rev. 81: 807-869). p38 and ERK activities were determined as described using myelin basic protein as a substrate (Hii, C. S., Huang, Z. H., Bilney, A., Costabile, M., Murray, A. W., Rathjen, D. A., Der, C. J., and Ferrante, A. (1998) J. Biol. Chem. 273: 19277-19282). […]

Experiment [2] relates to p38. Nature of the experiment: p38 kinase activity in human neutrophils. The format is cell-based. On the procedure:
as §1
Neutrophils were prepared from peripheral blood of healthy donors by a rapid single-step technique (Kumaratilake, L. M., Rathjen, D. A., Mack, P., Widmer, F., Prasertsiriroj, V., and Ferrante, A. (1995) J. Clin. Invest. 95: 2315-2323) using Hypaque-Ficoll and according to the institution's guidelines on human ethics. […] These were either used as cells in suspension or as adhered neutrophils by adding the cells to plasma coated plates as previously described (Powell, W., Gravel, S., Halwani, F., Hii, C. S., Huang, Z. H., Tan, A. M., and Ferrante, A. (1997) J. Immunol. 159: 2952-2959).
(§2) KHS (hereon referred to as “GCKR”) activity was assayed as described previously using myelin basic protein as a substrate (Shi, C. S., Leonardi, A., Kyriakis, J., Siebenlist, U., and Kerhl, J. H. (1999) J. Immunol. 163: 3279-3285). ASK-1 activation was determined in immunoprecipitates of ASK-1 by autophosphorylation (Kyriakis, J. M., and Auruch, J. (2001) Physiol. Rev. 81: 807-869). p38 and ERK activities were determined as described using myelin basic protein as a substrate (Hii, C. S., Huang, Z. H., Bilney, A., Costabile, M., Murray, A. W., Rathjen, D. A., Der, C. J., and Ferrante, A. (1998) J. Biol. Chem. 273: 19277-19282). […] A solid phase assay using glutathione-S-transferase (GST)-conjugated-jun (1-79) was employed to assay JNK activity (Hii, C. S., Huang, Z. H., Bilney, A., Costabile, M., Murray, A. W., Rathjen, D. A., Der, C. J., and Ferrante, A. (1998) J. Biol. Chem. 273: 19277-19282). Phosphorylated ASK-1, myelin basic protein and GST-jun (1-79) were fractionated on 8, 16 and 12% SDS polyacrylamide gels, respectively, and the bands were detected and radioactivity determined using an Instant Imager (Packard Instruments, Canberra, Australia).
(§3) The level of myelin basic protein phosphorylation was quantitated by an Instant Imager.

Experiment [3] has as its system neutrophils. Nature of the experiment: Neutrophil superoxide production, lucigenin chemiluminescence assay. The format is cell-based, human.
Protocol: Neutrophils were pre-treated with varying concentrations of SB203580 for 30 min and then exposed to 10 μM TNF70-80. The lucigenin enhanced chemiluminescence produced by the cells was measured in a luminometer. The peak initial rate of chemiluminescence produced is presented as the mean±sem of six experiments. The response in the presence of the inhibitor is expressed as a % of the control response.
Neutrophil superoxide production was measured as the chemiluminescence generated by the reduction of lucigenin, essentially as described previously (Kumaratilake, L. M., Rathjen, D. A., Mack, P., Widmer, F., Prasertsiriroj, V., and Ferrante, A. (1995) J. Clin. Invest. 95: 2315-2323). Briefly, to 1×10^6 neutrophils in 400 μl of HBSS was added 100 μl of stimulus and 500 μl of 250 μg/ml of lucigenin. The chemiluminescence was measured in a luminometer (Berthold Technologies, Bad Wildbad, Germany) over a 20 min period and the data imported into Microsoft Excel (Redmond, Wash.).
The cells were placed in a water-jacketed luminometer chamber (37° C.) (Autolumat Plus Model LB 953, Berthold Technologies, Bundoora, Australia) and the resulting light output recorded in millivolts (mV) at 10 second intervals. The data was analysed with Multiuser software (Berthold Tubemaster, Bundoora, Australia). The results are expressed as peak superoxide produced.
Various concentrations of TNFR1 fragment or diluent were added to neutrophils (106 in 100 μl HBSS) and incubated at 37° C. for 30 min 5% CO2 in air. After incubation 500 μl of lucigenin (250 μM, final), 100 μl of TNF70-80 (100 μg) were added and the final volume was adjusted to 1 ml.
Superoxide production by human neutrophils was measured by the reduction of the fluorescent lucigenin, (9,9′-bis(N-methyl-acridinium nitrate) (Sigma Chemical Company). This provides a direct and specific measure of agonist-induced superoxide production. Lucigenin-dependant chemiluminescence was measured as described previously Gyllenhannar H. (1987) J. Immunol. Methods 97:209-213. Briefly, 50 μl of 100 mg/ml of peptide or diluent and 250 ml of lucigenin was added to neutrophils (5×10^5 in 50 μl HBSS). The cells were placed in a water-jacketed luminometer chamber (37° C.) (Autolumat Plus Model LB 953, Berthold Technologies, Bundoora, Australia) and the resulting light output recorded in millivolts (mV) at 10 second intervals. The data was analysed with Multi-user software (Berthold Tubemaster, Bundoora, Australia).
Data are presented as mean±SEM of 3 experiments.
For experiment [4], the system named is JNK. Nature of the experiment: JNK phosphorylation in HL60 cells (western blot). The format is cell-based. Particulars: 15 min; TNF 100 U/ml, anisomycin 2.5 μg/ml.
Experiment [5] deals with p38. Nature of the experiment: p38 activity in HUVEC (immunoprecipitation, myelin basic protein substrate). The format is cell-based, human. Particulars: 5 min; TNF 1,000 U/ml, peptides 10 μM. On the procedure: as §3, §2
Experiment [6] has as its system p38. As to the kind of experiment: p38 activation in 70Z/3 cells transfected with hTNFR1 constructs. The format is cell-based, mouse. To be noted: 5 min; TNF 1000 U/ml, peptides 10 μM. On the procedure:
The cells were then lysed, protein contents quantified and subjected to p38 kinase assay by Western blot. The results are presented as the mean+−sem of 3 experiments.
The cells were maintained in RPMI-1640 medium with 4.5 g/L glucose, 2 mM L-glutamine, […] 2-mercaptoethanol and 10% FCS in an atmosphere of 95% air and 5% CO2. Cells were plated onto 10 cm plates at 4×10^7 cells in 15 ml culture medium. Before performing transient transfection, plasmid DNA (hTNFR1), kindly provided by Dr M. Kronke, Institute of Medical Microbiology and Hygiene, Medical Center University of Cologne, Koln, Germany (Adam, D., Wiegmann, K., Adam-Klages, S., Ruff A., and Kronke, M. (1996) J. Biol. Chem. 271: 14617-22), (20 μg in 1 ml of RPMI1640) was mixed with LipofectAMINE 2000 (Invitrogen) (60 μl in 1 ml of RPMI) and the mixture were left at room temperature for 20 min. The mixture was directly added to the cells and incubated for 24 h. The cells were washed twice with HBSS before use.

In the case of `CCCCCCCCCCCCCC(=O)O[C@@H]1[C@@H](C)[C@@]2(O)[C@@H](C=C(CO)C[C@]3(O)C(=O)C(C)=C[C@@H]23)[C@@H]2C(C)(C)[C@]12OC(C)=O` [PMA, reference compound], in experiment [1], the “activity/dual phosphorylation of ERK in neutrophils in suspension” value was “increased the dual phosphorylation of ERK1/ERK2”.
On to EDSGTT [Peptide M4-3], for which the “effect on TNF (mononuclear leukocyte fluid)-induced p38 activation in human neutrophils” value in experiment [2] (peptide pre-incubated with TNF medium (≈0.12 ng/ml TNF) 20 min, neutrophils 30 min) is recorded as “inhibition of TNF (mononuclear leukocyte fluid)-induced p38 activation”.
In the case of “His6-Leu-Lys-Pro-Gly-Thr-Thr-OH (HHHHHHLKPGTT-OH; listed as Homo sapiens) [Peptide M4]”, the “effect on TNF70-80-induced superoxide production in neutrophils” value in experiment [3] (TNFR1 fragment pre-incubated with neutrophils 30 min, then TNF70-80 (100 μg)) is “can block the biological activity of the TNF70-80”.
With “H-Gly-Thr-Thr-OH (listed as Homo sapiens) [Peptide M4-2]”, the “effect on TNF-induced superoxide generation of neutrophils” value in experiment [3] (peptide mixed with TNF at 37° C. for 20 min, then added to neutrophils) was “Inhibits TNF-Induced Superoxide Generation”.
On to `COc1ccc(C[C@H]2NC[C@H](O)[C@H]2OC(C)=O)cc1` [anisomycin, reference compound], for which the “JNK phosphorylation in HL60 cells” value in experiment [4] is on record as “increased JNK phosphorylation”.
For the compound `C[S+]([O-])c1ccc(-c2nc(-c3ccncc3)c(-c3ccc(F)cc3)[nH]2)cc1` (stereo not drawn) [SB203580, reference compound], the “effect on TNF70-80 stimulated neutrophil chemiluminescence response” value in experiment [3] (pre-incubated with inhibitor 30 min, then 10 μM TNF70-80) was “significantly reduced”.
Regarding “H-Gly-Gly-Asp-Pro-Gly-Ile-Val-Thr-His-Ser-OH (H-GGDPGIVTHS-OH) [control peptide 205, control peptide, reference compound]”, in experiment [5], the “activity of p38 in HUVEC” value is listed as “failed to stimulate p38”. Also, the “p38 activation in 70Z/3 cells transfected with wild type hTNFR1” value in experiment [6] was “failed to activate p38”. Also, in experiment [2] (5 min, TNF 100 or 1000 U/ml, TNF70-80 10-50 μM), the “activity of p38 in neutrophils in suspension” value is “did not activate p38”.
